Measured values from patent US20220296563A1, “ACYLATED ACTIVE AGENTS AND METHODS OF THEIR USE FOR THE TREATMENT OF METABOLIC DISORDERS AND NONALCOHOLIC FATTY LIVER DISEASE” (Flagship Pioneering Innovations V, Inc., priority 2019, published 2022).

Legend:
C57BL/6 mice = test: In vivo evaluation in C57BL/6 mice fed a high-fat diet; settings: vs. HFD control group, up to day 84
Procedure: Animals were allowed free access to food and drinking water for the entire study. Animals were weighed on a regular basis, and food and drinking water consumption monitored. Plasma and stool samples were collected at the beginning of the study and 42 days into the study. Additional blood was drawn from fasted mice 58 days into the study. Insulin tolerance tests were performed 72 or 73 days into the study. Following an approximate 4 h fast, 0.5 Units/kg insulin was administered intraperitoneally. Blood was collected pre-insulin challenge (t=0) and at t=15, 30, 60, 90, and 120 min following insulin challenge. Oral glucose tolerance tests were performed 79 or 80 days into the study. Following an approximate 4 h fast, 2 g/kg glucose was administered by oral gavage. Blood was collected pre-insulin challenge (t=0) and at t=15, 30, 60, 90, and 120 min following glucose challenge. At the end of the study, body weight, food consumption, blood glucose, serum ALT levels, serum AST levels, serum cholesterol (total cholesterol. HDL, and LDL levels), serum triglycerides levels, liver triglyceride levels, liver cholesterol levels, liver weight, subcutaneous were measured in all mice.

Mouse myocyte = Mouse myocyte lipolysis assay; assay type: cell-based; settings: 100 μM, differentiated myocytes
Procedure: Cells were obtained from ATCC and cultured in Dulbecco's Modified Eagle's medium (DMEM) containing 20% fetal bovine serum and 1% penicillin/streptomycin at 37° C. in an incubator with 5% CO2 Once the cells became confluent, they were seeded into a tissue culture treated 96 well plate. The next day, the medium containing DMEM with 2% equine serum was used to start differentiation. Table 2 lists the tested compounds including those that reduced the release of glycerol (+, ++, or +++). The lipolytic rate of muscle triglycerides is associated with metabolic dysfunction including insulin resistance and liver steatosis. Compounds that lower lipolysis of adipocytes may improve metabolic function including improving insulin sensitivity and reducing liver steatosis, thus improving outcomes in patients with diabetes mellitus (e.g., prediabetes or type II diabetes) obesity, and hyperlipidemia.

SMILES	body weight (C57BL/6 mice)	Free glycerol % DMSO (Mouse myocyte)
CC(=O)O[C@@H]1OC[C@@H](OC(C)=O)[C@H](OC(C)=O)[C@H]1OC(C)=O [compound 4]	induce weight loss	–
O=C(O)c1cc(O)ccc1O [Gentisate]	–	+++ (50%<: +++)
